Data taken from ChEMBL document CHEMBL3797172, “Structure Property Relationships of Carboxylic Acid Isosteres” (J Med Chem, 2016).
≈ marks a conversion by molar mass, not a printed value.

Key:
[1] = Effective permeability of compound assessed as membrane retention at pH 7.4 at 200 uM after 5 hrs by PAMPA relative to control; format: ADME; conditions: pH 7.4, 5 h
[2] = Percentage unbound in human plasma at 5 uM after 6 hrs by equilibrium dialysis method; format: ADME, cell-free; conditions: for Fu: 6 h, 5 µM
physchem [3] = conditions: aqueous phosphate buffer, pH 7.4
physchem [4] = conditions: 1-octanol/aqueous buffer, pH 7.4
[5] = Effective permeability of compound at pH 7.4 at 200 uM after 5 hrs by PAMPA; format: ADME; conditions: for Papp at 5 h, 200 µM: PAMPA, pH 7.4, read-out: Peff; for Peff: pampa, pH 7.4, 5 h, 200 µM, BLD = below limit of detection
[6] = Dissociation constant, pKa of the compound at 100 uM by capillary electrophoresis; format: physicochemical; conditions: for pKa: 100 µM
[7] = octanol/water, pH 7.4, 1 h
[8] = buffer, pH 7.4, 24 h, 200 µM
[9] = Apparent permeability of compound at pH 7.4 at 200 uM by PAMPA; format: physicochemical; conditions: pH 7.4, 200 µM, BLD = below limit of detection

| SMILES | R% [1] | Fu [2] | solubility kinetic at 24 h, 200 µM (physchem [3]) | logD [7] | also measured |
| --- | --- | --- | --- | --- | --- |
| O=C(O)CCc1ccccc1 | -7% | 9.5% | 111 µM (≈ 16.6 µg/mL) | – | – |
| CC1=C(O)CC(Cc2ccccc2)C1=O (stereo unspecified) | -5.1% | – | > 200 µM | – | fraction unbound at 6 h, 5 µM [2]: 0.111; logD at 1 h (physchem [4]): -0.33; Papp at 5 h, 200 µM [5]: 0.26 ×10⁻⁶ cm/s; pKa at 100 µM [6]: 4.47 |
| O=S(=O)(Cc1ccccc1)c1ccccc1O | 7.2% | 1.59% | 197 µM (≈ 48.9 µg/mL) | 1.76 | – |
| [O-][S+](Cc1ccccc1)c1ccccc1O (stereo unspecified) | 1.1% | 12% | ≥ 200 µM | 2.16 | – |
| CC(=O)N(O)CCc1ccccc1 | 1.1% | 37% | ≥ 200 µM | 1.52 | – |
| Oc1c(F)cc(Cc2ccccc2)cc1F | 49% | 0.26% | 109 µM (≈ 24 µg/mL) | 3.34 | – |
| Oc1c(F)ccc(Cc2ccccc2)c1F | -32% | 0.52% | 149 µM (≈ 32.7 µg/mL) | 3.56 | – |
| O=[PH](O)CCc1ccccc1 | -2.1% | 8.86% | 128 µM (≈ 21.7 µg/mL) | – | – |
| CS(=O)(=O)NCCCc1ccccc1 | 8.1% | 37.27% | ≥ 200 µM | 1.42 | pKa [6]: > 12 |
| CONC(=O)CCc1ccccc1 | 5.3% | 68% | ≥ 200 µM | 1.16 | – |
| O=c1c(O)c(NCc2ccccc2)c1=O | -6.6% | 6.45% | ≥ 200 µM | – | pKa [6]: < 2 |
| CS(=O)(=O)NC(=O)CCc1ccccc1 | 1.4% | 12.8% | 200 µM (≈ 45.4 µg/mL) | – | – |
| Oc1ccccc1SCc1ccccc1 | – | – | – | > 3.78 | Kinetic_solubility [8]: ND(Unstable) |
| O=C1CC(c2ccccc2)C=C1O (stereo unspecified) | -8.6% | – | 192 µM (≈ 33.5 µg/mL) | 1.71 | – |
| O=c1[nH]c(CCc2ccccc2)ns1 | -0.7% | 1.17% | 200 µM (≈ 41.4 µg/mL) | 1.66 | – |
| O=S([O-])CCc1ccccc1.[Na+] | -6.8% | 5% | ≥ 200 µM | -1.3 | logPapp [9]: BLD; Peff [5]: BLD |
| O=C1CC(=O)C(Cc2ccccc2)N1 (stereo unspecified) | 1.3% | – | ≥ 200 µM | -0.35 | Papp at 5 h, 200 µM [5]: 2.5 ×10⁻⁶ cm/s |
| O=C(CCc1ccccc1)NO | 0.03% | 29% | ≥ 200 µM | 0.71 | – |

| SMILES | R% [1] | Fu [2] | solubility kinetic at 24 h, 200 µM (physchem [3]) | logD [7] | also measured |
| --- | --- | --- | --- | --- | --- |
| CS(=O)(=O)NC(=O)NCc1ccccc1 | 3% | 31% | 198 µM (≈ 45.1 µg/mL) | -1.23 | – |
| O=C1NC(=O)C(Cc2ccccc2)O1 (stereo unspecified) | -0.6% | 14% | ≥ 200 µM | -0.16 | – |
| O=C1NC(=O)C(Cc2ccccc2)S1 (stereo unspecified) | 5.5% | 3.4% | 200 µM (≈ 41.5 µg/mL) | 1.07 | – |
| O=C1C=C(O)CC1Cc1ccccc1 (stereo unspecified) | -3% | 7.96% | 195 µM (≈ 36.7 µg/mL) | -0.7 | – |
| S=c1[nH]c(CCc2ccccc2)no1 | -3.4% | 0.65% | ≥ 200 µM | -0.25 | – |
| CC(=O)NOCCc1ccccc1 | -2.9% | 64% | 200 µM (≈ 35.8 µg/mL) | 1.18 | Papp at 5 h, 200 µM [5]: 4.6 ×10⁻⁶ cm/s |
| Oc1cc(Cc2ccccc2)on1 | -11% | 0.1% | ≥ 200 µM | 0.46 | – |
| O=C1CCC(O)=C1Cc1ccccc1 | -8.8% | 14.3% | 199 µM (≈ 37.5 µg/mL) | -0.6 | – |
| O=c1c(O)c(Cc2ccccc2)c1=O | -13% | 8.19% | 166 µM (≈ 31.2 µg/mL) | -0.84 | logPapp [9]: BLD; Peff [5]: BLD; pKa [6]: < 2 |
| c1ccc(CCc2nnn[nH]2)cc1 | 4.7% | 1.12% | ≥ 200 µM | -0.25 | – |
| O=P(O)(O)CCc1ccccc1 | -2.7% | 31% | 152 µM (≈ 28.4 µg/mL) | – | Papp at 5 h, 200 µM [5]: 0.094 ×10⁻⁶ cm/s |
| CC(=O)NC(=O)NCc1ccccc1 | -3.3% | 77% | ≥ 200 µM | 1.42 | pKa [6]: > 12 |
| NS(=O)(=O)CCc1ccccc1 | 4.2% | 60.72% | ≥ 200 µM | 0.96 | – |
| CN(C)S(=O)(=O)NC(=O)CCc1ccccc1 | 2.2% | 8.1% | 199 µM (≈ 51 µg/mL) | 0.17 | pKa [6]: 5.86 |
| O=c1[nH]c(CCc2ccccc2)no1 | -4% | 1.1% | ≥ 200 µM | 0.32 | – |
| O=S(=O)([O-])CCc1ccccc1.[Na+] | -6.1% | 0.31% | ≥ 200 µM | -1.45 | pKa [6]: < 2 |
| O=C1CCC(Cc2ccccc2)=C1O | 1.5% | 16% | 195 µM (≈ 36.7 µg/mL) | 1.85 | – |
